Laboratory results: ChEMBL document CHEMBL1201862, “PubChem BioAssay data set” (2004)
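Method: 48-hour compound exposure of cells in 96-well plates, five concentrations, linear interpolation of endpoints. GI50: concentration for 50% inhibition of growth.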 Activity calls are given as the source filed them. Cut-off read from the data, not from the text of the source: active = GI50 up to about 1.1 µM and inactive = higher.

Key:
Experiment in all cases: NCI-60 cell line screen, 48 h
786-0 = tested on: 786-0
A498 = tested on: A498
A549 = tested on: A549
ACHN = tested on: ACHN
BT-549 = tested on: BT-549
CAKI-1 = tested on: CAKI-1
CCRF-CEM = tested on: CCRF-CEM
DU-145 = tested on: DU-145
EKVX = tested on: EKVX
HCT-116 = tested on: HCT-116
HCT-15 = tested on: HCT-15
HL-60 = tested on: HL-60
HOP-62 = tested on: HOP-62
HOP-92 = tested on: HOP-92
HT-29 = tested on: HT-29
Hs-578T = tested on: Hs-578T
IGROV-1 = tested on: IGROV-1
K562 = tested on: K562
KM12 = tested on: KM12
LOX IMVI = tested on: LOX IMVI
M14 = tested on: M14
MCF7 = tested on: MCF7
MDA-MB-231 = tested on: MDA-MB-231
MDA-MB-435 = tested on: MDA-MB-435
MDA-N = tested on: MDA-N
MOLT-4 = tested on: MOLT-4
Malme-3M = tested on: Malme-3M
NCI-H226 = tested on: NCI-H226
NCI-H23 = tested on: NCI-H23
NCI-H460 = tested on: NCI-H460
NCI-H522 = tested on: NCI-H522
NCI/ADR-RES = tested on: NCI/ADR-RES
OVCAR-3 = tested on: OVCAR-3
OVCAR-4 = tested on: OVCAR-4
OVCAR-5 = tested on: OVCAR-5
OVCAR-8 = tested on: OVCAR-8
PC-3 = tested on: PC-3
RPMI-8226 = tested on: RPMI-8226
RXF 393 = tested on: RXF 393
SF-268 = tested on: SF-268
SF-295 = tested on: SF-295
SF-539 = tested on: SF-539
SK-MEL-28 = tested on: SK-MEL-28
SK-MEL-2 = tested on: SK-MEL-2
SK-MEL-5 = tested on: SK-MEL-5
SK-OV-3 = tested on: SK-OV-3
SN12C = tested on: SN12C
SNB-19 = tested on: SNB-19
SNB-75 = tested on: SNB-75
SR = tested on: SR
SW-620 = tested on: SW-620
T47D = tested on: T47D
TK-10 = tested on: TK-10
U-251 = tested on: U-251
UACC-257 = tested on: UACC-257
UACC-62 = tested on: UACC-62
UO-31 = tested on: UO-31
COLO 205 = tested on: COLO 205

`CN1CCc2c(sc3ncn(Nc4ccc(F)cc4)c(=N)c23)C1` was tested, and the GI50 (786-0) was > 100 µM (inactive), the GI50 (A498) was > 100 µM (inactive) and the GI50 (A549) was > 100 µM (inactive). The GI50 (ACHN) was > 100 µM (inactive), the GI50 (BT-549) was > 100 µM (inactive) and the GI50 (CAKI-1) was > 100 µM (inactive). For the same molecule, the GI50 (CCRF-CEM) was > 100 µM (inactive), the GI50 (DU-145) was > 100 µM (inactive) and the GI50 (EKVX) was > 100 µM (inactive). The GI50 (HCT-116) was > 100 µM (inactive), the GI50 (HCT-15) was > 100 µM and the GI50 (HL-60) was > 100 µM (inactive). For the same molecule, the GI50 (HOP-62) was > 100 µM (inactive), the GI50 (HOP-92) was > 100 µM (inactive) and the GI50 (HT-29) was > 100 µM (inactive). For the same molecule, the GI50 (Hs-578T) was > 100 µM (inactive), the GI50 (IGROV-1) was > 100 µM (inactive) and the GI50 (K562) was > 100 µM (inactive). The GI50 (KM12) was > 100 µM (inactive), the GI50 (LOX IMVI) was > 100 µM (inactive) and the GI50 (M14) was > 100 µM (inactive). For the same molecule, the GI50 (MCF7) was > 100 µM (inactive), the GI50 (MDA-MB-231) was > 100 µM (inactive) and the GI50 (MDA-MB-435) was > 100 µM (inactive). For the same molecule, the GI50 (MDA-N) was > 100 µM (inactive), the GI50 (MOLT-4) was > 100 µM (inactive) and the GI50 (Malme-3M) was > 100 µM (inactive). The GI50 (NCI-H226) was 92 µM (inactive), the GI50 (NCI-H23) was > 100 µM (inactive) and the GI50 (NCI-H460) was > 100 µM (inactive). For the same molecule, the GI50 (NCI-H522) was 65 µM (inactive), the GI50 (NCI/ADR-RES) was > 100 µM (inactive) and the GI50 (OVCAR-3) was > 100 µM (inactive). For the same molecule, the GI50 (OVCAR-4) was > 100 µM (inactive), the GI50 (OVCAR-5) was > 100 µM (inactive) and the GI50 (OVCAR-8) was > 100 µM (inactive). For the same molecule, the GI50 (PC-3) was > 100 µM (inactive), the GI50 (RPMI-8226) was > 100 µM (inactive) and the GI50 (RXF 393) was > 100 µM (inactive). The GI50 (SF-268) was > 100 µM (inactive), the GI50 (SF-295) was > 100 µM (inactive) and the GI50 (SF-539) was > 100 µM (inactive). For the same molecule, the GI50 (SK-MEL-28) was > 100 µM (inactive), the GI50 (SK-MEL-2) was > 100 µM (inactive) and the GI50 (SK-MEL-5) was > 100 µM (inactive). The GI50 (SK-OV-3) was > 100 µM (inactive), the GI50 (SN12C) was > 100 µM (inactive) and the GI50 (SNB-19) was > 100 µM (inactive). The GI50 (SNB-75) was > 100 µM (inactive), the GI50 (SR) was > 100 µM (inactive) and the GI50 (SW-620) was > 100 µM (inactive). For the same molecule, the GI50 (T47D) was > 100 µM (inactive), the GI50 (TK-10) was > 100 µM (inactive) and the GI50 (U-251) was > 100 µM (inactive). For the same molecule, the GI50 (UACC-257) was > 100 µM (inactive) and the GI50 (UACC-62) was > 100 µM (inactive).
`COc1ccc(N2C(=O)C3ON(Cc4ccc(CC(N)=O)cc4)C(c4c5ccccc5c(C)c5ccccc45)C3C2=O)cc1` (centres undefined) was tested, and the GI50 (786-0) was 30 µM (inactive), the GI50 (A498) was 46.1 µM (inactive) and the GI50 (A549) was 29.8 µM (inactive). The GI50 (ACHN) was 21.5 µM (inactive), the GI50 (BT-549) was 30.1 µM (inactive) and the GI50 (CAKI-1) was 20.7 µM (inactive). The GI50 (CCRF-CEM) was 12.4 µM (inactive), the GI50 (DU-145) was 20.9 µM (inactive) and the GI50 (EKVX) was 20.9 µM (inactive). For the same molecule, the GI50 (HCT-116) was 17.9 µM (inactive), the GI50 (HCT-15) was 17.1 µM and the GI50 (HL-60) was 14.9 µM (inactive). The GI50 (HOP-62) was 40.4 µM (inactive), the GI50 (HOP-92) was 19 µM (inactive) and the GI50 (HT-29) was 12.9 µM (inactive). The GI50 (Hs-578T) was 54.8 µM (inactive), the GI50 (IGROV-1) was 27.3 µM (inactive) and the GI50 (K562) was 3.27 µM (inactive). The GI50 (KM12) was 12.1 µM (inactive), the GI50 (LOX IMVI) was 26.4 µM (inactive) and the GI50 (M14) was 24.3 µM (inactive). For the same molecule, the GI50 (MCF7) was 17.7 µM (inactive), the GI50 (MDA-MB-231) was 36.5 µM (inactive) and the GI50 (MDA-MB-435) was 27.2 µM (inactive). For the same molecule, the GI50 (MDA-N) was 22.3 µM (inactive), the GI50 (MOLT-4) was 2.2 µM (inactive) and the GI50 (Malme-3M) was 35.8 µM (inactive). The GI50 (NCI-H23) was 32.7 µM (inactive), the GI50 (NCI-H460) was 13.6 µM (inactive) and the GI50 (NCI-H522) was 20 µM (inactive). The GI50 (NCI/ADR-RES) was 35.8 µM (inactive), the GI50 (OVCAR-3) was 25.4 µM (inactive) and the GI50 (OVCAR-4) was 13.6 µM (inactive). The GI50 (OVCAR-5) was 27 µM (inactive), the GI50 (OVCAR-8) was 27 µM (inactive) and the GI50 (PC-3) was 21.6 µM (inactive). The GI50 (RXF 393) was 14.2 µM (inactive), the GI50 (SF-268) was 38.7 µM (inactive) and the GI50 (SF-295) was 22 µM (inactive). The GI50 (SK-MEL-28) was > 100 µM (inactive), the GI50 (SK-MEL-2) was 20.1 µM (inactive) and the GI50 (SK-OV-3) was > 100 µM (inactive). The GI50 (SN12C) was 33.7 µM (inactive), the GI50 (SNB-19) was 27.9 µM (inactive) and the GI50 (SNB-75) was 14.4 µM (inactive). For the same molecule, the GI50 (SR) was 12.6 µM (inactive), the GI50 (SW-620) was 25.9 µM (inactive) and the GI50 (T47D) was 17.6 µM (inactive). For the same molecule, the GI50 (TK-10) was 17.8 µM (inactive), the GI50 (U-251) was 22.8 µM (inactive) and the GI50 (UACC-257) was 17.6 µM (inactive). For the same molecule, the GI50 (UACC-62) was 30.7 µM (inactive) and the GI50 (UO-31) was 16.4 µM (inactive).
For `c1ccc([P+](c2ccccc2)(c2ccccc2)c2ccc([P+](c3ccccc3)(c3ccccc3)c3ccccc3)cc2)cc1`, the GI50 (786-0) was > 100 µM (inactive), the GI50 (A498) was > 100 µM (inactive) and the GI50 (A549) was 64.9 µM (inactive). For the same molecule, the GI50 (ACHN) was > 100 µM (inactive), the GI50 (BT-549) was 31.3 µM (inactive) and the GI50 (CAKI-1) was > 100 µM (inactive). For the same molecule, the GI50 (CCRF-CEM) was 22.9 µM (inactive), the GI50 (COLO 205) was 20.1 µM (inactive) and the GI50 (DU-145) was 52.8 µM (inactive). For the same molecule, the GI50 (HCT-116) was 32 µM (inactive), the GI50 (HCT-15) was > 100 µM and the GI50 (HL-60) was 16 µM (inactive). For the same molecule, the GI50 (HOP-62) was > 100 µM (inactive), the GI50 (HT-29) was 45.8 µM (inactive) and the GI50 (Hs-578T) was 31.6 µM (inactive). For the same molecule, the GI50 (IGROV-1) was 59.7 µM (inactive), the GI50 (K562) was 28.4 µM (inactive) and the GI50 (KM12) was 31 µM (inactive). The GI50 (LOX IMVI) was 34.3 µM (inactive), the GI50 (M14) was 82 µM (inactive) and the GI50 (MCF7) was 32.4 µM (inactive). For the same molecule, the GI50 (MDA-MB-231) was > 100 µM (inactive), the GI50 (MDA-MB-435) was 49.5 µM (inactive) and the GI50 (MDA-N) was 56.1 µM (inactive). For the same molecule, the GI50 (MOLT-4) was 24.7 µM (inactive), the GI50 (Malme-3M) was > 100 µM (inactive) and the GI50 (NCI-H226) was 65.5 µM (inactive). The GI50 (NCI-H23) was 39.9 µM (inactive), the GI50 (NCI-H460) was 43.5 µM (inactive) and the GI50 (NCI-H522) was 37.1 µM (inactive). For the same molecule, the GI50 (NCI/ADR-RES) was > 100 µM (inactive), the GI50 (OVCAR-3) was 48.2 µM (inactive) and the GI50 (OVCAR-5) was 88.5 µM (inactive). For the same molecule, the GI50 (OVCAR-8) was 59.6 µM (inactive), the GI50 (PC-3) was 41.4 µM (inactive) and the GI50 (RPMI-8226) was > 100 µM (inactive). The GI50 (RXF 393) was 34.8 µM (inactive), the GI50 (SF-268) was 57.4 µM (inactive) and the GI50 (SF-295) was > 100 µM (inactive). The GI50 (SF-539) was 24.8 µM (inactive), the GI50 (SK-MEL-28) was > 100 µM (inactive) and the GI50 (SK-MEL-2) was 34.3 µM (inactive). The GI50 (SK-MEL-5) was 41 µM (inactive), the GI50 (SK-OV-3) was > 100 µM (inactive) and the GI50 (SN12C) was 35.7 µM (inactive). For the same molecule, the GI50 (SNB-19) was 54.1 µM (inactive), the GI50 (SNB-75) was 37.6 µM (inactive) and the GI50 (SR) was 0.0815 µM (active). The GI50 (SW-620) was > 100 µM (inactive), the GI50 (T47D) was 27.9 µM (inactive) and the GI50 (TK-10) was 60.7 µM (inactive). For the same molecule, the GI50 (U-251) was 34.2 µM (inactive), the GI50 (UACC-257) was 29.2 µM (inactive) and the GI50 (UACC-62) was 71.6 µM (inactive). For the same molecule, the GI50 (UO-31) was > 100 µM (inactive).
